Assay [1] addresses Plasmepsin II (Plasmodium falciparum, UniProt P46925). As to the kind of experiment: Inhibitory activity against plasmepsin-2.
The target of assay [2] is Cathepsin D (Homo sapiens, UniProt P07339). As to the kind of experiment: Compound was tested for inhibitory activity against cathepsin D.
Assay [3] concerns Plasmodium falciparum. Description: Inhibitory concentration for Plasmodium falciparum culture. It is filed as functional, organism-based.

Sequence of Cathepsin D (P07339 65-162 limits assumed): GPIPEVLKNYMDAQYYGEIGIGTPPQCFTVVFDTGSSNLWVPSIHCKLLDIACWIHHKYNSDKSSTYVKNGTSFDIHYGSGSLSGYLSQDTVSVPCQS
Sequence of Cathepsin D (P07339 169-412 limits assumed): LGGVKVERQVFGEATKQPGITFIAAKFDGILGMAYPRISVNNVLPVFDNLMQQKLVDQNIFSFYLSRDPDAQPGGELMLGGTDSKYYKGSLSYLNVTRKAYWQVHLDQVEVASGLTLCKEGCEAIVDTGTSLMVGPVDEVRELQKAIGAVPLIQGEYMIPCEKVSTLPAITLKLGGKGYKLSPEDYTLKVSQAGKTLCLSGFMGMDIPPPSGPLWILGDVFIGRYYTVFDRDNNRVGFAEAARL
Sequence of Plasmepsin II (P46925 whole entry): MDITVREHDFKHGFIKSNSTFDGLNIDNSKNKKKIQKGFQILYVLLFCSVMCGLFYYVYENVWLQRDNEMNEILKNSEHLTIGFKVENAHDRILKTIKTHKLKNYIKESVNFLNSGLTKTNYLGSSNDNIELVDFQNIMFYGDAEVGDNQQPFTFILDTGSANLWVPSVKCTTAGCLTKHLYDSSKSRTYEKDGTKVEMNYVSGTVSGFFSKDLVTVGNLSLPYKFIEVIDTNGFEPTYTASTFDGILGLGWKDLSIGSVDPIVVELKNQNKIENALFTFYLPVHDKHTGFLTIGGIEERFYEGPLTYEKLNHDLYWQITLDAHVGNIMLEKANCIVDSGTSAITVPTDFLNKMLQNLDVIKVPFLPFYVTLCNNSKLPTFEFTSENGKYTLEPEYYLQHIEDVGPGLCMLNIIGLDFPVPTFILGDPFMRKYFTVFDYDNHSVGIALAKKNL

Take `CCCCNC(=O)C[C@H](O)[C@H](Cc1ccccc1)NC(=O)CC1CN(Cc2cc(OC)c(OC)c(OC)c2)CCN1C(=O)c1ccc(OC(C)C)cc1` (some centres undefined): the 50% inhibitory concentration (IC50) in assay [1] was approximately 40 µM. In assay [2], this compound yielded a Ki of 5.3 µM.

Consider `CCCCNC(=O)C[C@H](O)[C@H](Cc1ccccc1)NC(=O)CC1CN(Cc2ccc(-c3ccccc3)cc2)CCN1C(=O)CC(CN)c1ccc(Cl)cc1` (some centres undefined), for which the IC50 in assay [3] is 3 µM; in assay [2], approximately 45 µM. In assay [1], this compound came in with an inhibition constant (Ki) of 0.49 µM.

As for `CCCCNC(=O)C[C@H](O)[C@H](Cc1ccccc1)NC(=O)C1CN(C(=O)CCCCC(=O)OCC)CCN1C(=O)CCc1cc(OC)c(OC)c(OC)c1` (some centres undefined), the concentration for half-maximal inhibition (IC50) in assay [1] was approximately 100 µM. In assay [2], this compound registered an inhibition constant Ki of 1.1 µM.

Turning to `CCCCNC(=O)C[C@H](O)[C@H](Cc1ccccc1)NC(=O)C1CN(CCOCCc2ccccc2)CCN1C(=O)CCc1cc(OC)c(OC)c(OC)c1` (some centres undefined), the IC50 in assay [1] was approximately 65 µM. Further, affinity in assay [2] was put at a Ki of 1.8 µM.
